Test results taken from patent publication US9951065B2 (Gilead Sciences, Inc., priority 2015, dated 2018).
pEC50: −log10 of the molar value.

Target: T1, IDO1 (Homo sapiens, UniProt P14902)
T1 construct: HeLa cells were treated with a test compound in the presence of IFNγ, which induces IDO1 expression; host or cells: H1-HeLa cells, IDO1 induced with IFNγ
Assay: Cell-based (HeLa) assay for measurement of IDO1 inhibition (kynurenine levels in supernatant after IFNγ induction)
Conditions: HeLa cells, IFNγ-induced IDO1, kynurenine in supernatant, 48 hour incubation; geometric mean of a minimum of four determinations
In short: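 IDO1 activity is read as kynurenine released into the medium, detected with Ehrlich's reagent (p-dimethylaminobenzaldehyde) at 480 nm after TCA treatment. HeLa cells were exposed 48 h to compounds in 0.5% DMSO alongside IFNγ induction. Values normalized to no-IFNγ and IFNγ controls; four-parameter EC50 given as geometric mean of ≥4 determinations.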

T1 sequence (P14902 whole entry): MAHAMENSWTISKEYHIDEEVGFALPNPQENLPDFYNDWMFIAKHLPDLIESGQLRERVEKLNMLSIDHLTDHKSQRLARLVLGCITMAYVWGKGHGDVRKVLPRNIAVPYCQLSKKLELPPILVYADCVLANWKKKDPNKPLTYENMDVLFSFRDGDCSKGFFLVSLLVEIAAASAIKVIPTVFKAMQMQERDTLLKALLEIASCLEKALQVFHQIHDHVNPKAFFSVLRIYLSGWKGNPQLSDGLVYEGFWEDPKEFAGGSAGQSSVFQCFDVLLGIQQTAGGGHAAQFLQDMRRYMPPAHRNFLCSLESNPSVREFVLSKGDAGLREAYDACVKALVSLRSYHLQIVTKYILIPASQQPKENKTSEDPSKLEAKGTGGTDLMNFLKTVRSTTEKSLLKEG

Compound	pEC50
CN(C)CCNc1nc2c(F)ccc(/C(=N/O)Nc3cccc(Cl)c3)c2[nH]1 [Example 384, N-(3-chlorophenyl)-2-((2-(dimethylamino)ethyl)amino)-4-fluoro-N′-hydroxy-1H-benzo[d]imidazole-7-carboximidamide]	6.54
CN(C)CCCNc1nc2c(F)c(F)cc(/C(=N/O)Nc3cccc(Cl)c3)c2[nH]1 [Example 385, N-(3-chlorophenyl)-2-((3-(dimethylamino)propyl)amino)-4,5-difluoro-N′-hydroxy-1H-benzo[d]imidazole-7-carboximidamide]	6.24
CN(C)CCCNc1nc2c(F)c(F)cc(/C(=N/O)Nc3cccc(Br)c3)c2[nH]1 [Example 386, N-(3-bromophenyl)-2-((3-(dimethylamino)propyl)amino)-4,5-difluoro-N′-hydroxy-1H-benzo[d]imidazole-7-carboximidamide]	6.25
CN(C)CCCNc1nc2c(F)c(F)cc(/C(=N/O)Nc3ccc(F)c(Br)c3)c2[nH]1 [Example 387, N-(3-bromo-4-fluorophenyl)-2-((3-(dimethylamino)propyl)amino)-4,5-difluoro-N′-hydroxy-1H-benzo[d]imidazole-7-carboximidamide]	6.16
CN(C)CCCNc1nc2c(F)ccc(/C(=N/O)Nc3ccc(F)c(Cl)c3)c2[nH]1 [Example 388, N-(3-chloro-4-fluorophenyl)-2-((3-(dimethylamino)propyl)amino)-4-fluoro-N′-hydroxy-1H-benzo[d]imidazole-7-carboximidamide]	6.03
CN(C)CCCNc1nc2cc(F)cc(/C(=N/O)Nc3ccc(F)c(Cl)c3)c2[nH]1 [Example 389, N-(3-chloro-4-fluorophenyl)-2-((3-(dimethylamino)propyl)amino)-5-fluoro-N′-hydroxy-1H-benzo[d]imidazole-7-carboximidamide]	5.94
CN(CCNc1nc2c(F)c(F)cc(/C(=N/O)Nc3ccc(F)c(Cl)c3)c2[nH]1)Cc1ccccc1 [Example 390, 2-((2-(benzyl(methyl)amino)ethyl)amino)-N-(3-chloro-4-fluorophenyl)-4,5-difluoro-N′-hydroxy-W-benzo[d]imidazole-7-carboximidamide]	5.99
CN(CCc1nc2nccc(/C(=N/O)Nc3ccc(F)c(Cl)c3)c2[nH]1)CC1CCCCC1 [Example 391, N-(3-chloro-4-fluorophenyl)-2-(2-((cyclohexylmethyl)(methyl)amino)ethyl)-N′-hydroxy-1H-imidazo[4,5-b]pyridine-7-carboximidamide]	5.83
CN(CCc1nc2nccc(/C(=N/O)Nc3ccc(F)c(Cl)c3)c2[nH]1)CC(C)(C)C [Example 392, N-(3-chloro-4-fluorophenyl)-N′-hydroxy-2-(2-(methyl(neopentyl)amino)ethyl)-1H-imidazo[4,5-b]pyridine-7-carboximidamide]	5.91
CN(CCc1nc2nccc(/C(=N/O)Nc3ccc(F)c(Cl)c3)c2[nH]1)C1CCCCC1 [Example 393, N-(3-chloro-4-fluorophenyl)-2-(2-(cyclohexyl(methyl)amino)ethyl)-N′-hydroxy-1H-imidazo[4,5-b]pyridine-7-carboximidamide]	5.75
CN(CCNc1nc2c(F)c(F)cc(/C(=N/O)Nc3ccc(F)c(Cl)c3)c2[nH]1)CC1CCOCC1 [Example 394, N-(3-chloro-4-fluorophenyl)-4,5-difluoro-N′-hydroxy-2-((2-(methyl((tetrahydro-2H-pyran-4-yl)methyl)amino)ethyl)amino)-1H-benzo[d]imidazole-7-carboximidamide]	6.48
CNCCNc1nc2c(F)c(F)cc(/C(=N/O)Nc3ccc(F)c(Cl)c3)c2[nH]1 [Example 395, N-(3-chloro-4-fluorophenyl)-4,5-difluoro-N′-hydroxy-2-((2-(methylamino)ethyl)amino)-1H-benzo[d]imidazole-7-carboximidamide]	6.12
CN(CCc1nc2nccc(/C(=N/O)Nc3ccc(F)c(Cl)c3)c2[nH]1)Cc1ccccc1 [Example 396, 2-(2-(benzyl(methyl)amino)ethyl)-N-(3-chloro-4-fluorophenyl)-N′-hydroxy-1H-imidazo[4,5-b]pyridine-7-carboximidamide]	6.10
CCC(CC)CN(C)CCNc1nc2c(F)c(F)cc(/C(=N/O)Nc3ccc(F)c(Cl)c3)c2[nH]1 [Example 397, N-(3-chloro-4-fluorophenyl)-2-((2-((2-ethylbutyl)(methyl)amino)ethyl)amino)-4,5-difluoro-N′-hydroxy-1H-benzo[d]imidazole-7-carboximidamide]	5.88
CN(CCNc1nc2c(F)c(F)cc(/C(=N/O)Nc3ccc(F)c(Cl)c3)c2[nH]1)CC1CC1 [Example 398, N-(3-chloro-4-fluorophenyl)-2-((2-((cyclopropylmethyl)(methyl)amino)ethyl)amino)-4,5-difluoro-N′-hydroxy-1H-benzo[d]imidazole-7-carboximidamide]	6.26

Other lines, results leading:

pEC50	Compound
5.88	CN(CCc1nc2nccc(/C(=N/O)Nc3ccc(F)c(Cl)c3)c2[nH]1)CC1CCOCC1 [Example 399, N-(3-chloro-4-fluorophenyl)-N′-hydroxy-2-(2-(methyl((tetrahydro-2H-pyran-4-yl)methyl)amino)ethyl)-1H-imidazo[4,5-b]pyridine-7-carboximidamide]
5.55	CN(CCc1nc2nccc(/C(=N/O)Nc3ccc(F)c(Cl)c3)c2[nH]1)CC1COCCO1 (stereo not drawn) [Example 400, 2-(2-(((1,4-dioxan-2-yl)methyl)(methyl)amino)ethyl)-N-(3-chloro-4-fluorophenyl)-N′-hydroxy-1H-imidazo[4,5-b]pyridine-7-carboximidamide]
6.24	CN(CCc1nc2nccc(/C(=N/O)Nc3ccc(F)c(Cl)c3)c2[nH]1)CCC1CCOCC1 [Example 401, N-(3-chloro-4-fluorophenyl)-N′-hydroxy-2-(2-(methyl(2-(tetrahydro-2H-pyran-4-yl)ethyl)amino)ethyl)-1H-imidazo[4,5-b]pyridine-7-carboximidamide]
6.25	O/N=C(\Nc1ccc(F)c(Cl)c1)c1ccnc2nc(NCCNC3CC3)[nH]c12 [Example 402, N-(3-chloro-4-fluorophenyl)-2-((2-(cyclopropylamino)ethyl)amino)-N′-hydroxy-1H-imidazo[4,5-b]pyridine-7-carboximidamide]
6.72	CCN(CCNc1nc2nccc(/C(=N/O)Nc3ccc(F)c(Cl)c3)c2[nH]1)C1CC1 [Example 403, N-(3-chloro-4-fluorophenyl)-2-((2-(cyclopropyl(ethyl)amino)ethyl)amino)-N′-hydroxy-1H-imidazo[4,5-b]pyridine-7-carboximidamide]
< 5.00	CC(=O)NCCNc1nc2nccc(/C(=N/O)Nc3ccc(F)c(Cl)c3)c2[nH]1 [Example 404, N-(2-((7-(N-(3-chloro-4-fluorophenyl)-N′-hydroxycarbamimidoyl)-1H-imidazo[4,5-b]pyridin-2-yl)amino)ethyl)acetamide]
5.15	CS(=O)(=O)NCCNc1nc2nccc(/C(=N/O)Nc3ccc(F)c(Cl)c3)c2[nH]1 [Example 405, N-(3-chloro-4-fluorophenyl)-N′-hydroxy-2-((2-(methylsulfonamido)ethyl)amino)-1H-imidazo[4,5-b]pyridine-7-carboximidamide]
6.73	CC(C)N(CCNc1nc2nccc(/C(=N/O)Nc3ccc(F)c(Cl)c3)c2[nH]1)C1CC1 [Example 406, N-(3-chloro-4-fluorophenyl)-2-((2-(cyclopropyl(isopropyl)amino)ethyl)amino)-N′-hydroxy-1H-imidazo[4,5-b]pyridine-7-carboximidamide]
5.67	OCCN(CCNc1nc2nccc(/C(=N/O)Nc3ccc(F)c(Cl)c3)c2[nH]1)C1CC1 [Example 407, N-(3-chloro-4-fluorophenyl)-2-((2-(cyclopropyl(2-hydroxyethyl)amino)ethyl)amino)-N′-hydroxy-1H-imidazo[4,5-b]pyridine-7-carboximidamide]
5.97	Cc1nnc(CNc2nc3nccc(/C(=N/O)Nc4ccc(F)c(Cl)c4)c3[nH]2)o1 [Example 427, N-(3-chloro-4-fluorophenyl)-N′-hydroxy-2-(((5-methyl-1,3,4-oxadiazol-2-yl)methyl)amino)-1H-imidazo[4,5-b]pyridine-7-carboximidamide]
5.87	CN1CCOCC1CNc1nc2c(F)c(F)cc(/C(=N/O)Nc3ccc(F)c(Cl)c3)c2[nH]1 (stereo not drawn) [Example 429, N-(3-chloro-4-fluorophenyl)-4,5-difluoro-N′-hydroxy-2-(((4-methylmorpholin-3-yl)methyl)amino)-1H-benzo[d]imidazole-7-carboximidamide]
6.74	CN(C)CCNc1nc2c(F)c(F)cc(/C(=N/O)Nc3cccc(Br)c3)c2[nH]1 [Example 430, N-(3-bromophenyl)-2-((2-(dimethylamino)ethyl)amino)-4,5-difluoro-N′-hydroxy-1H-benzo[d]imidazole-7-carboximidamide]
6.86	CN(C)CCNc1nc2c(F)c(F)cc(/C(=N/O)Nc3cccc(Cl)c3)c2[nH]1 [Example 431, N-(3-chlorophenyl)-2-((2-(dimethylamino)ethyl)amino)-4,5-difluoro-N′-hydroxy-1H-benzo[d]imidazole-7-carboximidamide]
6.60	CN(C)CCNc1nc2c(F)c(F)cc(/C(=N/O)Nc3ccc(F)c(Br)c3)c2[nH]1 [Example 432, N-(3-bromo-4-fluorophenyl)-2-((2-(dimethylamino)ethyl)amino)-4,5-difluoro-N′-hydroxy-1H-benzo[d]imidazole-7-carboximidamide]
6.05	O/N=C(\Nc1ccc(F)c(Cl)c1)c1cc(F)c(F)c2nc(NCCCN3CCOCC3)[nH]c12 [Example 433, N-(3-chloro-4-fluorophenyl)-4,5-difluoro-N′-hydroxy-2-((3-morpholinopropyl)amino)-1H-benzo[d]imidazole-7-carboximidamide]
